These results are taken from patent publication US8962244B2, “Compounds for modulating RNA binding proteins and uses therefor” (University of Massachusetts, priority 2009, dated 2015).

Like-named read-outs stand apart in the source and are kept apart here.

The target in one assay is T1, POS-1 (Caenorhabditis elegans, UniProt G5EF15).
T1 construct: 6-his tag (N); made in house; host or cells: E. coli BL21 (DE3) Gold
T1 sequence (G5EF15 80-180): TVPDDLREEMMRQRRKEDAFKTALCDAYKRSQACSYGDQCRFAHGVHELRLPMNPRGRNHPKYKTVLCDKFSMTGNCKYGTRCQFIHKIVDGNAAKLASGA
The experiment in a line: Fluorescence polarization screening of POS-1 binding to fluorescein-labeled BMF018 RNA. As to conditions: 192 μM test compound; score = polarization relative to no-drug and no-protein controls; 0.25 = 75% inhibition; lowest score = greatest inhibition; read-out: POS-1 score. For orientation: In fluorescence polarisation assays a small probe gives low polarisation when free and higher when bound to something large.

In the next assay the target is T2, MEX-5 (Caenorhabditis elegans, UniProt Q9XUB2).
T2 construct: The fragment of mex-5 containing the TZF domain (amino acids 236-350) was amplified; made in house; host or cells: Escherichia coli JM109
T2 sequence (Q9XUB2 236-350): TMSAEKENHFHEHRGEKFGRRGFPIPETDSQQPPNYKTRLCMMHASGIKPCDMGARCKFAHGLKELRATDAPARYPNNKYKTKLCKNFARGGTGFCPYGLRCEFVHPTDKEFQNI
Briefly: Fluorescence polarization screening of MEX-5 binding to fluorescein-labeled TCR2 RNA. The conditions noted are these: read-out: MEX-5 score. The text has this:
The expression and purification of recombinant MEX-5 protein has previously been described in Pagano, J. M., Farley, B. M., McCoig, L. M. and Ryder, S. P. (2007) “Molecular basis of RNA recognition by the embryonic polarity determinant MEX-5;” J Biol Chem; 282, 8883-8894. The fragment of mex-5 containing the TZF domain (amino acids 236-350) was amplified from a commercially available ORFeome clone (Open Biosystems) and sub-cloned into the vector pMal-c (NEB), which encodes maltose binding protein as an N-terminal fusion. This construct is termed pMal-MEX-5 (236-350).
MEX-5 is expressed in Escherchia. coli JM109 liquid cultures grown at 37° C. Cultures were induced during mid log phase by the addition of 0.1 mM isopropyl 1-thio-β-D-galactopyranoside (IPTG) and allowed to grow for three hours. An amount of 100 μM zinc acetate (final concentration) was added at the time of induction. The pelleted cells were resuspended in lysis buffer (50 mM Tris pH 8.8, 200 mM NaCl, 2 mM DTT, EDTA free protease inhibitor tablet (Roche), 100 μM Zn(OAc)2) and lysed by sonication. The soluble protein was purified in three steps using standard chromatography methods: (1) amylose affinity (NEB), (2) Hi-TRAP-Q (GE Healthcare), and (3) Hi-TRAP-S (GE Healthcare). The Q buffer was composed of 50 mM Tris, pH 8.8, 20 mM-1500 mM NaCl, 2 mM DTT, and 100 μM Zn(OAc)2. The S buffer was composed of 50 mM MOPS, pH 6.0, 20 mM-1500 mM NaCl, 2 mM DTT, 100 μM Zn(OAc)2. The pure fractions, determined by coomassie-stained SDS-PAGE, were dialyzed into storage buffer (20 mM Tris, pH 8.0, 25 mM NaCl, 100 μM Zn(OAc)2, 2 mM DTT). The protein concentration was determined by measuring absorbance at 280 nm and the calculated extinction coefficient. The protein was stored at 50 μM concentration at 4° C.
All RNA oligonucleotides were chemically synthesized by Dharmacon or Integrated DNA Technologies. Upon arrival, each RNA was deprotected and stored according to the manufacturer's instructions. Prior to use, the RNA was resuspended in 10 mM Tris-HCl, pH 8.0, 0.1 mM EDTA, and the concentration determined by UV spectrophotometry using the calculated extinction coefficient at 260 nm based on the specific sequence. The sequence of the MEX-5 binding RNA (TCR2) is […] (SEQ ID NO:1). The POS-1 binding RNA (BMF018) is […] (SEQ ID NO:2). The MEX-3 binding RNA (SEQ 14) is […] (SEQ ID NO:3).
The RNA used for the small molecule screen was labeled at the 3′-end with fluorescein by Dharmacon during synthesis. In a few cases, follow up experiments were performed with post-synthetically labeled RNA. In this case, fluorescein 5-thiosemicarbazide (FTSC, Invitrogen) was used to 3′-end label each RNA after treatment with sodium periodate (see Reines, S. A. and Cantor, C. R. (1974) “New fluorescent hydrazide reagents for the oxidized 3′-terminus of RNA” Nucleic Acids Res. 1, 767-786). A representative 50 μl reaction consisted of 0.5 nanomoles RNA, 100 mM NaOAc, pH 5.1, and 5 nanomoles NaIO4. After the reaction was complete (90 minutes at room temperature), the sample was ethanol precipitated by adding 1 μl RNase free glycogen (Invitrogen 20 μg/μl), 1/20th volume of 5 M NaCl, and 2 volumes of 100% ice-cold ethanol. The resulting pellet was resuspended in 50 μl of 100 mM NaOAc, pH 5.1 containing 1 mM FTSC and was allowed to react overnight at 4° C. in the dark. The unreacted label was removed by ethanol precipitation with resuspension of the pellet in a small volume of TE, and purification over a Roche G-25 size exclusion spin column. The labeling efficiency is determined by calculating the ratio of fluorescein absorbance at 490 nm to RNA-fluorescein absorbance at 260 nm. Typical efficiencies are 60-80%.
The ability of MEX-5 to associate with RNA was monitored by fluorescence polarization using a victor V3 or victor V2V plate reader (Perkin Elmer) in 384-well FluoTrak microplates (Grenier). […]

Setting [1] is: 192 μM test compound, score = polarization relative to no-drug and no-protein controls, 0.25 = 75% inhibition, lowest score = greatest inhibition.

`CCOC(=O)c1c(NC(=O)C2CC=CCC2C(=O)O)sc(C)c1-c1ccc(Cl)cc1` (stereo not shown) [EA]: the remaining activity at 192 µM on POS-1 came out at 20.3%.
For the compound `CCOC(=O)C(=O)Nc1nnc(C(C)(C)C)s1` [CR], the remaining activity at 192 µM at MEX-5 (setting [1]) amounted to 24.7%.
For `CC(=O)Nc1nc(N2C(=O)c3ccccc3C2=O)n(-c2ccccc2)n1` [CV], the remaining activity at 192 µM at MEX-5 (setting [1]) came to 25.5%.
The same measure, in the same setting: then `CCCn1c(NC(=S)Nc2ccccc2)nc2ccccc21` [CH], with 23.1%.
As to `CCOC(=O)c1ccc(N2NC(=O)/C(=C/c3ccc(OC(=O)c4ccco4)c(OC)c3)C2=O)cc1` [DR], on POS-1, the remaining activity at 192 µM worked out at 17.2%.
On to `CCOC(=O)C1=C(C)Nc2[nH]c(=O)[nH]c(=O)c2C1c1ccccc1[N+](=O)[O-]` (stereo not shown) [EF], for which the remaining activity at 192 µM at POS-1 is 22.8%.
`Cc1cc(C)nc(NS(=O)(=O)c2ccc(Nc3nc(-c4ccc(O)c(O)c4)cs3)cc2)n1` [AC]: the remaining activity at 192 µM at MEX-5 (setting [1]) was 7.58%.
Turning to `CC(=O)Nc1nc2ccc(S(=O)(=O)NC(C)=O)cc2s1` [ED], the remaining activity at 192 µM on POS-1 was determined as 22%.
Still for that read-out and setting: the result for `O=C(O)c1cccc(NC(=S)NC(=O)c2ccc(-c3ccc(Cl)cc3)o2)c1` [EI] reads 23%.
In the case of `COc1ccc(OCCn2c(NC(C)=O)nc3ccccc32)cc1` [BC], the remaining activity at 192 µM at MEX-5 (setting [1]) amounted to 15.5%.
Take `O=C(O)c1ccc(NC(=S)NC(=O)c2sc3ccccc3c2Cl)cc1` [CY]: on POS-1, the remaining activity at 192 µM was 4.35%.
As to `CC(C)Oc1ccc(Cc2nnc(S)n2-c2ccccc2)cc1Cl` [CM], the remaining activity at 192 µM at MEX-5 (setting [1]) is 23.6%.
Turning to `O=C(NC(=S)N(Cc1ccccc1)Cc1ccccc1)c1ccc(Br)o1` [CP], at MEX-5 (setting [1]), the remaining activity at 192 µM was 24.1%.
Same read-out and setting: the result for `O=C(CSc1nnc2c(n1)[nH]c1ccccc12)Nc1ccc(S(=O)(=O)Nc2nccs2)cc1` [CI] reads 23.2%; that for `O=[N+]([O-])c1cccc(S(=O)(=O)Nc2cc(Br)c(O)c3ccccc23)c1` [AJ], 9.23%; that for `COc1ccc(OCc2nnc(S)n2-c2ccccc2)cc1` [CE], 22.7%.
The same measure, in the same setting: then `Cc1ccccc1OCc1nnc(S)n1C` [CN], with 23.9%; and `Sc1nnc(COc2cccc(Br)c2)n1-c1ccccc1` [BB], with 15.4%.
On the same count and under the same terms, then `Fc1ccc(-n2c(S)nnc2-c2cccs2)cc1` [CL], with 23.5%.
Take `CCc1ccc(-n2c(-c3cc(Cl)ccc3OC)n[nH]c2=S)cc1` [CG]: the remaining activity at 192 µM at MEX-5 (setting [1]) worked out at 23%.
The same measure, in the same setting: the result for `Sc1nnc(-c2cccs2)n1-c1ccccc1` [R] reads 3.52%; that for `CCCCn1c(NC(=S)Nc2ccccc2)nc2ccccc21` [AW], 14.1%.
Turning to `Cc1ccc(C(=O)Nc2nc(-c3ccccc3)c(-c3ccccc3)o2)cc1` [CC], the remaining activity at 192 µM on MEX-5 (setting [1]) worked out at 22.5%.
Still for that read-out and setting: the result for `S=C(Nc1ccccc1)Nc1nc2ccccc2n1Cc1ccccc1` [AR] reads 12.9%; that for `Cn1c(-c2cc(Br)ccc2O)n[nH]c1=S` [AN], 10.5%; that for `Sc1nnc(-c2cccs2)n1CCc1ccccc1` [BQ], 19.5%.
On the same count and under the same terms, then `C=CCn1c(S)nnc1CCc1ccc(OC(C)C)cc1` [CS], with 25.2%.
Same read-out and setting: then `O=C(Nc1nc2n(n1)C(c1ccccc1)C=C(c1ccccc1)N2)c1ccc([N+](=O)[O-])cc1` (stereo not shown) [BH], with 17.6%; and `CCCc1nnc(NC(=O)c2cccc(C(=O)Nc3nnc(CCC)s3)n2)s1` [AK], with 10.2%.
Regarding `CCCCC(=O)Nc1cccc(NC(=S)NC(=O)C(C)C)c1` [BT], the remaining activity at 192 µM at MEX-5 (setting [1]) came out at 20.2%.
On the same count and under the same terms, the result for `O=[N+]([O-])c1cc(CN2CCC(c3ccccc3)C2)c(O)c2ncccc12` (stereo not shown) [BX] reads 21.2%.
On to `O=C(NC(=S)N(Cc1ccccc1)Cc1ccccc1)c1ccc([N+](=O)[O-])cc1` [CK], for which the remaining activity at 192 µM on MEX-5 (setting [1]) was found to be 23.4%.
The same measure, in the same setting: then `O=c1[nH]c(=S)[nH]c2sc3c(c12)CCCCCCCCCC3` [CJ], with 23.4%; and `O=S(=O)(Nc1cc(Cl)c(O)c2ccccc12)c1cccs1` [V], with 6.26%.
On to `CCOC(=O)Cc1nnc(NC(=O)c2ncn[nH]2)s1` [N], for which the remaining activity at 192 µM on MEX-5 (setting [1]) worked out at 2.09%.
On the same count and under the same terms, the result for `CCc1cc(-c2n[nH]c(C)c2-c2nc3ccccc3s2)c(O)cc1OC` [CU] reads 25.3%; that for `Cc1cc([N+](=O)[O-])ccc1NC(=O)c1cnccn1` [BG], 17.2%.
Still for that read-out and setting: the result for `CCC(=O)NC(c1ccc(OC)c(OC)c1)c1cc([N+](=O)[O-])c2cccnc2c1O` (stereo not shown) [AG] reads 8.62%.
Same read-out and setting: then `CCOC(=O)C(=O)Nc1nnc(Cc2ccc(Cl)cc2)s1` [Q], with 3.51%.
Regarding `O=[N+]([O-])c1cccc(S(=O)(=O)Nc2cc(Cl)c(O)c3ccccc23)c1` [X], the remaining activity at 192 µM on MEX-5 (setting [1]) was determined as 6.69%.
For the compound `Sc1nnc(CCc2ccccc2)n1-c1ccccc1` [BD], the remaining activity at 192 µM on MEX-5 (setting [1]) worked out at 15.5%.
Regarding `COc1ccc(C(=O)NC(=S)Nc2cc(C)cc(C)c2)cc1Cl` [BN], the remaining activity at 192 µM at MEX-5 (setting [1]) is 18.9%.
Still for that read-out and setting: the result for `COc1ccc(C(=O)Nc2nc(N3C(=O)c4ccccc4C3=O)n(-c3ccccc3)n2)cc1` [BE] reads 16.1%.
Take `Cc1ccc(-n2c(-c3ccco3)n[nH]c2=S)cc1` [AS]: at MEX-5 (setting [1]), the remaining activity at 192 µM was 13.1%.
As to `Sc1nnc(SCc2ccccc2Cl)s1` [CT], the remaining activity at 192 µM at MEX-5 (setting [1]) is 25.2%.
For `CCOC(=O)N1CCN(C(=S)Nc2ccc3nc(-c4ccccn4)c(-c4ccccn4)nc3c2)CC1` [BZ], the remaining activity at 192 µM on MEX-5 (setting [1]) was determined as 21.4%.
On the same count and under the same terms, the result for `Cc1ccc(-c2cc(C(=O)Nc3ccccc3Cl)c3ccccc3n2)o1` [BW] reads 21.2%.
Same read-out and setting: the result for `COc1cc(-c2nnc(S)n2-c2ccc(C)cc2C)cc(OC)c1OC` [CF] reads 22.9%.
On the same count and under the same terms, the result for `Cc1ccccc1Cn1c(S)nc2ccccc21` [AX] reads 14.1%; that for `O=[N+]([O-])c1cc(CN2CCOCC2)c2cccnc2c1O` [U], 6.21%.
For `Oc1ccccc1-c1n[nH]c(=S)n1-c1ccccc1` [BM], the remaining activity at 192 µM on MEX-5 (setting [1]) was determined as 18.8%.
Still for that read-out and setting: then `O=C(Nc1nc2ccccc2s1)c1cccc(C(=O)Nc2nc3ccccc3s2)n1` [AP], with 12.2%; and `Cc1ccc(S(=O)(=O)Nc2nc(N3C(=O)c4ccccc4C3=O)n(-c3ccccc3)n2)cc1` [AT], with 13.2%.
Turning to `CC(=O)Oc1ccc2c(C)cc(=O)oc2c1OC(C)=O` [CQ], the remaining activity at 192 µM on MEX-5 worked out at 24.5%.
Regarding `CCOC(=O)c1c[nH]c2nc3ccccc3n2c1=O` [AM], on MEX-5 (setting [1]), the remaining activity at 192 µM turned out to be 10.5%.
